In US20150274664A1 (MERCK SHARP & DOHME CORP., priority 2012, published 2015) one finds EC50 data, which are given here for 25 compounds.

pEC50: −log10 of the molar value.

In general, pEC50 refers to the negative decadic logarithm of the EC50, by convention in mol/L. High values mean a small EC50, low ones a large EC50.

For this assay, the target named is T1, human GPR119 (Homo sapiens, UniProt Q8TDV5).
T1 construct: expressed in transfected cells; host or cells: HEK293
T1 sequence (Q8TDV5 1-335): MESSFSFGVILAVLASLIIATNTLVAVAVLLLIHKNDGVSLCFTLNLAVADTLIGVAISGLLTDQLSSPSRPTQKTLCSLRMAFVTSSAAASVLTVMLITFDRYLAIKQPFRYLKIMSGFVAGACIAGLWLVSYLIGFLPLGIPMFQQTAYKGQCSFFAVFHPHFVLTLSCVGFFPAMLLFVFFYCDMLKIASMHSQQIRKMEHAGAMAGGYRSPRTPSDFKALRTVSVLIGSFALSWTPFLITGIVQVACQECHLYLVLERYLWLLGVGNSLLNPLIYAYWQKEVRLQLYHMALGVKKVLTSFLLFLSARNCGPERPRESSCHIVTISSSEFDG
The assay can be described thus: Measurement of GPR119 signaling using LANCE 384-well cAMP kit (LCMP assay). Type of assay: cell-based. The following applies: HEK293 cells stably transfected with human GPR119. How it is done: Measurement of GPR119 Signaling Using LANCE 384-Well cAMP Kit (LCMP Assay)
Human embryonic kidney (HEK) 293 cell lines stably transfected with human GPR119 were maintained in DMEM media containing FBS, penicillin-streptomycin, HEPES, and hygromycin. For the cAMP assay, the transfected cells were harvested using a non-enzymatic cell dissociation solution (GIBCO 2672), pelleted and resuspended in stimulation buffer (DMEM, 25 mM Hepes, 0.1% BSA, pH 7.4 in the presence of 100 μM phosphodiesterase inhibitors). The adenylate cyclase assay was constructed following the LANCE™ cAMP Kit (Perkin Elmer, AD0264) instructions. Briefly, cells with Alexa Fluor® 647-anti cAMP antibody were incubated with 10 point series diluted test article in stimulation buffer with a final concentration of 2.5% DMSO for 45 minutes. The reaction was stopped by incubating with the supplied detection buffer containing the europium chelate of the Eu-SA/Biotin-cAMP tracer for 3 hours. The assay was performed in duplicate in a 384 well plate for duplicate plates. Fluorescence at 665 nm was measured using a PHERAstar instrument. Basal activity was determined using a DMSO control and maximum response was defined as cAMP stimulation produced by an internal agonist control. Standard cAMP concentrations were assayed concurrently for conversion of fluorescence signal to cAMP level. The data was analyzed using 4-parameter curve fit in Microsoft Excel.
The compound `Fc1cc(-n2cnnn2)ccc1OCC[C@H]1C[C@@H]1C1CCN(c2ncc(Cl)cn2)CC1` [Example 58, 5-chloro-2-(4-((1R,2R)-2-(2-(2-fluoro-4-(1H-tetrazol-1-yl)phenoxy)ethyl)cyclopropyl)piperidin-1-yl)pyrimidine] gave a pEC50 of 7.96.
`CC(C)c1noc(N2CCC([C@@H]3C[C@H]3CCOc3ccc(CC(=O)N4CCC4)c(F)c3)CC2)n1` [Example 69, 1-(azetidin-1-yl)-2-(2-fluoro-4-(2-((1S,2S)-2-(1-(3-isopropyl-1,2,4-oxadiazol-5-yl)piperidin-4-yl)cyclopropyl)ethoxy)phenyl)ethanone] had a pEC50 of 8.66.
In the case of `COCc1cnc(N2CCC([C@H]3C[C@@H]3CCOc3cc(F)c(CC(=O)N(C)C)c(F)c3)CC2)nc1` [Example 57, 2-(2,6-difluoro-4-(2-((1R,2R)-2-(1-(5-(methoxymethyl)pyrimidin-2-yl)piperidin-4-yl)cyclopropyl)ethoxy)phenyl)-N,N-dimethylacetamide], the pEC50 was 9.20.
As for `COCc1noc(N2CCC([C@H]3C[C@@H]3CCOc3ccc(-n4cnnn4)cc3F)CC2)n1` [Example 90, 5-(4-((1R,2R)-2-(2-(2-fluoro-4-(1H-tetrazol-1-yl)phenoxy)ethyl)cyclopropyl)piperidin-1-yl)-3-(methoxymethyl)-1,2,4-oxadiazole], the figure is 7.70; as for `CCc1cnc(N2CCC([C@H]3C[C@@H]3CCNc3ncc(-n4cnnn4)cn3)CC2)nc1` [Example 125, N-(2-((1R,2S)-2-(1-(5-ethylpyrimidin-2-yl)piperidin-4-yl)cyclopropyl)ethyl)-5-(1H-tetrazol-1-yl)pyrimidin-2-amine], 7.74.
For `CCc1cnc(N2CCC([C@@H]3C[C@H]3CCOc3cc(F)cc(F)c3CC(=O)N3CCC3)CC2)nc1` [Example 118, 1-(azetidin-1-yl)-2-(2-(2-((1S,2S)-2-(1-(5-ethylpyrimidin-2-yl)piperidin-4-yl)cyclopropyl)ethoxy)-4,6-difluorophenyl)ethanone] the value was 7.77; for `Fc1cc(OCC[C@H]2C[C@@H]2C2CCN(c3ncc(Cl)cn3)CC2)ccc1-n1cnnn1` [Example 37, 5-chloro-2-(4-((1R,2R)-2-(2-(3-fluoro-4-(1H-tetrazol-1-yl)phenoxy)ethyl)cyclopropyl)piperidin-1-yl)pyrimidine], 8.17; for `COCc1noc(N2CCC([C@H]3C[C@@H]3CCOc3ccc(CC(=O)N(C)C)c(F)c3)CC2)n1` [Example 93, 2-(2-fluoro-4-(2-((1R,2R)-2-(1-(3-(methoxymethyl)-1,2,4-oxadiazol-5-yl)piperidin-4-yl)cyclopropyl)ethoxy)phenyl)-N,N-dimethylacetamide], 7.74.
For `CC(C)c1noc(N2CCC([C@@H]3C[C@H]3CCOc3ccc(-n4cnnn4)cc3F)CC2)n1` [Example 67, 5-(4-((1S,2S)-2-(2-(2-fluoro-4-(1H-tetrazol-1-yl)phenoxy)ethyl)cyclopropyl)piperidin-1-yl)-3-isopropyl-1,2,4-oxadiazole] the value was 8.21; for `CC1(OC(=O)N2CCC([C@H]3C[C@@H]3CCOc3ccc(-n4cnnn4)c(F)c3)CC2)CC1` [Example 106, 1-methylcyclopropyl 4-((1R,2R)-2-(2-(3-fluoro-4-(1H-tetrazol-1-yl)phenoxy)ethyl)cyclopropyl)piperidine-1-carboxylate], 7.85.
`COCc1noc(N2CCC([C@@H]3C[C@H]3CCOc3ccc(CC(=O)N4CCC4)c(F)c3)CC2)n1` [Example 91, 1-(azetidin-1-yl)-2-(2-fluoro-4-(2-((1S,2S)-2-(1-(3-(methoxymethyl)-1,2,4-oxadiazol-5-yl)piperidin-4-yl)cyclopropyl)ethoxy)phenyl)ethanone] had a pEC50 of 7.72.
`CCc1cnc(N2CCC([C@@H]3C[C@H]3CCOc3ccc(CC(=O)N(C)C)c(F)c3)CC2)nc1` [Example 46, 2-(4-(2-((1S,2S)-2-(1-(5-ethylpyrimidin-2-yl)piperidin-4-yl)cyclopropyl)ethoxy)-2-fluorophenyl)-N,N-dimethylacetamide] had a pEC50 of 8.36.
As for `CCc1cnc(N2CCC([C@H]3C[C@@H]3CCOc3ccc(CC(=O)N4CCC4)cc3F)CC2)nc1` [Example 44, 1-(azetidin-1-yl)-2-(4-(2-((1R,2R)-2-(1-(5-ethylpyrimidin-2-yl)piperidin-4-yl)cyclopropyl)ethoxy)-3-fluorophenyl)ethanone], the figure is 8.54; as for `CC1(OC(=O)N2CCC([C@H]3C[C@@H]3COCc3ccc(S(C)(=O)=O)cc3F)CC2)CC1` [Example 14, 1-methylcyclopropyl 4-((1R,2S)-2-((2-fluoro-4-(methylsulfonyl)benzyloxy)methyl)cyclopropyl)piperidine-1-carboxylate], 8.06; as for `COCc1cnc(N2CCC([C@H]3C[C@@H]3CCOc3ccc(CC(=O)N(C)C)c(F)c3)CC2)nc1` [Example 53, 2-(2-fluoro-4-(2-((1R,2R)-2-(1-(5-(methoxymethyl)pyrimidin-2-yl)piperidin-4-yl)cyclopropyl)ethoxy)phenyl)-N,N-dimethylacetamide], 8.23.
For `CC(C)c1noc(N2CCC([C@@H]3C[C@H]3CCNc3ncc(-n4cnnn4)cn3)CC2)n1` [Example 126, N-(2-((1S,2R)-2-(1-(3-isopropyl-1,2,4-oxadiazol-5-yl)piperidin-4-yl)cyclopropyl)ethyl)-5-(1H-tetrazol-1-yl)pyrimidin-2-amine] the value was 7.80.
`COCc1noc(N2CCC([C@H]3C[C@@H]3CCOc3ccc(CC(=O)N4CCC4)c(F)c3)CC2)n1` [Example 73, 1-(azetidin-1-yl)-2-(2-fluoro-4-(2-((1R,2R)-2-(1-(3-(methoxymethyl)-1,2,4-oxadiazol-5-yl)piperidin-4-yl)cyclopropyl)ethoxy)phenyl)ethanone] gave a pEC50 of 8.19.
For `COCc1noc(N2CCC([C@H]3C[C@@H]3CCOc3cc(F)c(CC(=O)N(C)C)c(F)c3)CC2)n1` [Example 84, 2-(2,6-difluoro-4-(2-((1R,2R)-2-(1-(3-(methoxymethyl)-1,2,4-oxadiazol-5-yl)piperidin-4-yl)cyclopropyl)ethoxy)phenyl)-N,N-dimethylacetamide] the value was 8.52; for `CN(C)C(=O)Cc1ccc(OCC[C@@H]2C[C@H]2C2CCN(C(=O)OC3(C)CC3)CC2)cc1F` [Example 99, 1-methylcyclopropyl 4-((1S,2S)-2-(2-(4-(2-(dimethylamino)-2-oxoethyl)-3-fluorophenoxy)ethyl)cyclopropyl)piperidine-1-carboxylate], 8.06; for `CC(C)c1noc(N2CCC([C@@H]3C[C@H]3CCOc3ccc(S(C)(=O)=O)cc3F)CC2)n1` [Example 66, 5-(4-((1S,2S)-2-(2-(2-fluoro-4-(methylsulfonyl)phenoxy)ethyl)cyclopropyl)piperidin-1-yl)-3-isopropyl-1,2,4-oxadiazole], 8.46.
`COCc1cnc(N2CCC([C@@H]3C[C@H]3CCOc3ccc(CC(=O)N(C)C)c(F)c3)CC2)nc1` [Example 52, 2-(2-fluoro-4-(2-((1S,2S)-2-(1-(5-(methoxymethyl)pyrimidin-2-yl)piperidin-4-yl)cyclopropyl)ethoxy)phenyl)-N,N-dimethylacetamide] had a pEC50 of 8.02.
As for `CCc1cnc(N2CCC([C@H]3C[C@@H]3CCOc3ccc(N4CCNC4=O)c(F)c3)CC2)nc1` [Example 43, 1-(4-(2-((1R,2R)-2-(1-(5-ethylpyrimidin-2-yl)piperidin-4-yl)cyclopropyl)ethoxy)-2-fluorophenyl)imidazolidin-2-one], the figure is 8.02; as for `O=C(Cc1ccc(OCC[C@H]2C[C@@H]2C2CCN(c3ncc(Cl)cn3)CC2)cc1F)N1CCC1` [Example 34, 1-(azetidin-1-yl)-2-(4-(2-((1R,2R)-2-(1-(5-chloropyrimidin-2-yl)piperidin-4-yl)cyclopropyl)ethoxy)-2-fluorophenyl)ethanone], 9.19; as for `CCS(=O)(=O)c1ccc(OCC[C@@H]2C[C@H]2C2CCN(c3nc(C(C)C)no3)CC2)nc1` [Example 111, 5-(4-((1S ,2S)-2-(2-((5-(ethylsulfonyl)pyridin-2-yl)oxy)ethyl)cyclopropyl)piperidin-1-yl)-3-isopropyl-1,2,4-oxadiazole], 7.77.
For `CC(C)c1noc(N2CCC([C@H]3C[C@@H]3CCOc3ccc(S(C)(=O)=O)cn3)CC2)n1` [Example 110, 3-isopropyl-5-(4-((1R,2R)-2-(2-(5-(methylsulfonyl)pyridin-2-yloxy)ethyl)cyclopropyl)piperidin-1-yl)-1,2,4-oxadiazole] the value was 7.74.
